Reference: patent publication US20020061888A1, “Combination therapy for the prophylaxis and treatment of hyperlipidemic conditions and disorders” (priority 2000, published 2002)
Several values for one entry are separate records, joined by “and”; a condition that tells them apart may be missing. Identical values can stand only once. Marks after values point to notes of the source that are not given here.

What was measured:
Male beagle dogs [1] = experiment: Serum total cholesterol in beagle dogs (serum lipid measurements); type: in vivo; conditions: for TOTAL SERUM CHOLESTEROL / SERUM TOTAL CHOLESTEROL: n = 6; for decrease in serum total cholesterol concentration: compared to vehicle
Experimental: (§1) Male beagle dogs (9-10 kg) obtained from Marshall farms were fed a normal chow diet once a day for a two hour interval and given water ad libitum. Prior to initiating treatment, the dogs were weighed and blood samples were drawn from the cephalic vein of each dog following an overnight fast to evaluate pretreatment serum total cholesterol levels at the start of the study. […] All doses were administered in gelatin capsules per os to each dog between 9:00-9:30 a.m. prior to feeding. All animals were fed between 9:30-10:00 a.m. and were allowed two hours to eat, at which time any remaining food was removed. […] Animals were dosed daily for three weeks and blood samples were taken at the end of each week after an overnight fast for comparison with pretreatment serum total cholesterol levels. Three consecutive 24 hour fecal samples were collected for each group during the last 72 hours of each week and used to measure the concentration of fecal biles acids excreted during that time period.
Blood was collected from the cephalic vein of each dog into serum separator tubes. The blood was centrifuged at 900×g for 20 minutes at room temperature and the serum decanted. All analyses were performed on a Cobas Mira Clinical Analyzer System (Roche Diagnostic Systems, Branchburg, N.J.) using Roche Diagnostic reagents for enzymatic determinations of serum cholesterol. Commercial calibrator and quality control materials were analyzed with each run to verify assay accuracy and precision. A two-tailed, paired Students t-test was used to determine the statistical significance of changes in serum total cholesterol in treated dogs compared to pretreatment values. A one-way analysis of variance (“ANOVA”) was used to compare each pair of treatment groups to determine the statistical significance of changes in serum total cholesterol.
Beagle dogs also were administered pravastatin to evaluate the monotherapeutic effect of pravastatin on serum total cholesterol.
Male beagle dogs (9-10 kg) obtained from Marshall farms were fed once a day for two hours and given water ad libitum. Prior to initiating treatment, blood samples were drawn from the cephalic vein of each dog to evaluate pretreatment total serum cholesterol levels at the start of the study.
For the dose ranging study, the dogs were assigned to one of five groups based on mean body weights and serum total cholesterol levels. Each group received one of the following dosages: (1) vehicle (empty capsule, afternoon dosing), (2) 3.0 mg/kg/day pravastatin (afternoon dosing), (3) 10 mg/kg/day pravastatin (afternoon dosing), (4) 30 mg/kg/day pravastatin (afternoon dosing), and (5) 10 mg/kg/day pravastatin (morning dosing). One capsule containing pravastatin was administered per os to each dog between 9:00-9:30 a.m. prior to feeding for the 10 mg/kg/day morning dosing group and between 2:30-3:00 p.m. for the afternoon dosing groups. All animals were fed between 9:30-10:00 a.m. and were allowed two hours to eat, at which time any remaining food was removed. […] Animals were dosed daily for four weeks and blood samples were taken at the end of each week after an overnight fast for comparison with pretreatment serum total cholesterol levels.
(§2) Following this initial four week dose-ranging study, dogs from the two groups receiving 10 mg/kg/day pravastatin (a.m. and p.m. dosing groups) were randomized into two new treatment groups based on serum total cholesterol levels to initiate the combination treatment study. […] Dosing continued in this manner for an additional four weeks (Weeks 5-8) with blood and 48-hour fecal samples collected at the end of each week for serum lipid measurements and fecal bile acid determinations, respectively.

Male beagle dogs [2] = experiment: Body or fecal weights, stool consistency, general animal health of treated beagle dogs; type: in vivo; conditions: Example 3 study (pravastatin 3-30 mg/kg/day, compound A-5 4.0 mg/kg/day, combination), any of the groups
Experimental: as §1
as §2, with “respectively. […] At the end of this three-week period, pravastatin dosing and all empty capsule dosing were discontinued and blood samples were collected weekly for a final three weeks (weeks 12-14) to monitor the return of serum total cholesterol levels back to baseline.” for “respectively.”
Male beagle dogs (9-10 kg) obtained from Marshall farms were fed once a day for two hours and given water ad libitum.

## CC[C@H](C)C(=O)O[C@H]1C[C@H](O)C=C2C=C[C@H](C)[C@H](CC[C@@H](O)C[C@@H](O)CC(=O)O)[C@H]21 [pravastatin, Pravastatin]
Male beagle dogs [1]; pravastatin 10.0 mg/kg/day pm dosing, Week 3, mean ± SEM
  TOTAL SERUM CHOLESTEROL: 128 ± 9^3 mg/dL
Male beagle dogs [1]; pravastatin 10.0 mg/kg/day pm dosing, Week 4
  % change in serum total cholesterol compared to the pretreatment value of each group: (−21) %
Male beagle dogs [1]; pravastatin 10.0 mg/kg/day pm dosing, Week 4, mean ± SEM
  TOTAL SERUM CHOLESTEROL: 126 ±8 mg/dL and 126 ± 8^3 mg/dL
Male beagle dogs [1]; pravastatin 16.0 mg/kg/day, Week 1
  % change in serum total cholesterol compared to the pretreatment value of each group: (−8) %
Male beagle dogs [1]; pravastatin 16.0 mg/kg/day, Week 1, mean ± SEM
  SERUM TOTAL CHOLESTEROL: 142 ± 8 mg/dL
Male beagle dogs [1]; pravastatin 16.0 mg/kg/day, Week 2
  % change in serum total cholesterol compared to the pretreatment value of each group: (−12) %
Male beagle dogs [1]; pravastatin 16.0 mg/kg/day, Week 2, mean ± SEM
  SERUM TOTAL CHOLESTEROL: 137 ± 12^2 mg/dL
Male beagle dogs [1]; pravastatin 16.0 mg/kg/day, Week 3
  % change in serum total cholesterol compared to the pretreatment value of each group: (−14) %
Male beagle dogs [1]; pravastatin 16.0 mg/kg/day, one week of treatment
  decrease in serum total cholesterol concentration: 8%
Male beagle dogs [1]; pravastatin 16.0 mg/kg/day, three weeks of treatment
  decrease in serum total cholesterol concentration: 14%
Male beagle dogs [1]; pravastatin 30.0 mg/kg/day pm dosing, Week 1
  % change in serum total cholesterol compared to the pretreatment value of each group: (+2) %
Male beagle dogs [1]; pravastatin 30.0 mg/kg/day pm dosing, Week 1, mean ± SEM
  TOTAL SERUM CHOLESTEROL: 164 ± 10 mg/dL
Male beagle dogs [1]; pravastatin 30.0 mg/kg/day pm dosing, Week 2
  % change in serum total cholesterol compared to the pretreatment value of each group: (−18) %
Male beagle dogs [1]; pravastatin 30.0 mg/kg/day pm dosing, Week 2, mean ± SEM
  TOTAL SERUM CHOLESTEROL: 132 ± 8^3 mg/dL
Male beagle dogs [1]; pravastatin 30.0 mg/kg/day pm dosing, Week 3
  % change in serum total cholesterol compared to the pretreatment value of each group: (−18) %
Male beagle dogs [1]; pravastatin 30.0 mg/kg/day pm dosing, Week 3, mean ± SEM
  TOTAL SERUM CHOLESTEROL: 132 ± 11^3 mg/dL
Male beagle dogs [1]; pravastatin 30.0 mg/kg/day pm dosing, Week 4
  % change in serum total cholesterol compared to the pretreatment value of each group: (−20) %
Male beagle dogs [1]; pravastatin 30.0 mg/kg/day pm dosing, Week 4, mean ± SEM
  TOTAL SERUM CHOLESTEROL: 128 ± 7^3 mg/dL
Male beagle dogs [1]; pravastatin 30 mg/kg/day, four week dose ranging study
  lowering of serum total cholesterol: 20%
Male beagle dogs [1]; pravastatin monotherapy 10 mg/kg/day, Week 8
  total decrease in serum total cholesterol compared to the pretreatment value: 30%
Male beagle dogs [1]; pravastatin monotherapy 10 mg/kg/day, dosed Weeks 1-11, Week 1
  % change from Week 0 in total serum cholesterol: (−2) %
Male beagle dogs [1]; pravastatin monotherapy 10 mg/kg/day, dosed Weeks 1-11, Week 1, mean ± SEM
  TOTAL SERUM CHOLESTEROL: 157 ± 10 mg/dL
Male beagle dogs [1]; pravastatin monotherapy 10 mg/kg/day, dosed Weeks 1-11, Week 2
  % change from Week 0 in total serum cholesterol: (−16) %
Male beagle dogs [1]; pravastatin monotherapy 10 mg/kg/day, dosed Weeks 1-11, Week 2, mean ± SEM
  TOTAL SERUM CHOLESTEROL: 135 ± 17 mg/dL
Male beagle dogs [1]; pravastatin monotherapy 10 mg/kg/day, dosed Weeks 1-11, Week 3
  % change from Week 0 in total serum cholesterol: (−18) %
Male beagle dogs [1]; pravastatin monotherapy 10 mg/kg/day, dosed Weeks 1-11, Week 3, mean ± SEM
  TOTAL SERUM CHOLESTEROL: 132 ± 13 mg/dL
Male beagle dogs [1]; pravastatin monotherapy 10 mg/kg/day, dosed Weeks 1-11, Week 4
  % change from Week 0 in total serum cholesterol: (−19) %
Male beagle dogs [1]; pravastatin monotherapy 10 mg/kg/day, dosed Weeks 1-11, Week 4, mean ± SEM
  TOTAL SERUM CHOLESTEROL: 130 ± 9 [a] mg/dL
Male beagle dogs [1]; pravastatin monotherapy 10 mg/kg/day, dosed Weeks 1-11, Week 5
  % change from Week 0 in total serum cholesterol: (−21) %
Male beagle dogs [1]; pravastatin monotherapy 10 mg/kg/day, dosed Weeks 1-11, Week 5, mean ± SEM
  TOTAL SERUM CHOLESTEROL: 127 ± 9 [a] mg/dL
Male beagle dogs [1]; pravastatin monotherapy 10 mg/kg/day, dosed Weeks 1-11, Week 6
  % change from Week 0 in total serum cholesterol: (−27) %
Male beagle dogs [1]; pravastatin monotherapy 10 mg/kg/day, dosed Weeks 1-11, Week 6, mean ± SEM
  TOTAL SERUM CHOLESTEROL: 117 ± 10 [a] mg/dL
Male beagle dogs [1]; pravastatin monotherapy 10 mg/kg/day, dosed Weeks 1-11, Week 7
  % change from Week 0 in total serum cholesterol: (−25) %
Male beagle dogs [1]; pravastatin monotherapy 10 mg/kg/day, dosed Weeks 1-11, Week 7, mean ± SEM
  TOTAL SERUM CHOLESTEROL: 121 ± 7 [a] mg/dL
Male beagle dogs [1]; pravastatin monotherapy 10 mg/kg/day, dosed Weeks 1-11, Week 8
  % change from Week 0 in total serum cholesterol: (−30) %
Male beagle dogs [1]; pravastatin monotherapy 10 mg/kg/day, dosed Weeks 1-11, Week 8, mean ± SEM
  TOTAL SERUM CHOLESTEROL: 113 ±9 mg/dL and 113 ± 9 [a] mg/dL
Male beagle dogs [1]; pravastatin monotherapy 10 mg/kg/day, dosed Weeks 1-11, Week 9
  % change from Week 0 in total serum cholesterol: (−26) %
Male beagle dogs [1]; pravastatin monotherapy 10 mg/kg/day, dosed Weeks 1-11, Week 9, mean ± SEM
  TOTAL SERUM CHOLESTEROL: 119 ± 8 [a] mg/dL
Male beagle dogs [1]; pravastatin monotherapy 10 mg/kg/day, dosed Weeks 1-11, Week 10
  % change from Week 0 in total serum cholesterol: (−27) %
Male beagle dogs [1]; pravastatin monotherapy 10 mg/kg/day, dosed Weeks 1-11, Week 10, mean ± SEM
  TOTAL SERUM CHOLESTEROL: 118 ± 9 [a] mg/dL
Male beagle dogs [1]; pravastatin monotherapy 10 mg/kg/day, dosed Weeks 1-11, Week 11
  % change from Week 0 in total serum cholesterol: (−27) %
Male beagle dogs [1]; pravastatin monotherapy 10 mg/kg/day, dosed Weeks 1-11, Week 11, mean ± SEM
  TOTAL SERUM CHOLESTEROL: 118 ± 8 [a] mg/dL
Male beagle dogs [1]; pravastatin monotherapy group, dosing terminated after Week 11, Week 12
  % change from Week 0 in total serum cholesterol: (−19) %
Male beagle dogs [1]; pravastatin monotherapy group, dosing terminated after Week 11, Week 12, mean ± SEM
  TOTAL SERUM CHOLESTEROL: 131 ± 9 [a] mg/dL
Male beagle dogs [1]; pravastatin monotherapy group, dosing terminated after Week 11, Week 13
  % change from Week 0 in total serum cholesterol: (−9) %
Male beagle dogs [1]; pravastatin monotherapy group, dosing terminated after Week 11, Week 13, mean ± SEM
  TOTAL SERUM CHOLESTEROL: 147 ± 9 mg/dL
Male beagle dogs [1]; pravastatin monotherapy group, dosing terminated after Week 11, Week 14
  % change from Week 0 in total serum cholesterol: (−11) %
Male beagle dogs [1]; pravastatin monotherapy group, dosing terminated after Week 11, Week 14, mean ± SEM
  TOTAL SERUM CHOLESTEROL: 144 ± 12 mg/dL
Male beagle dogs [2]
  changes in body or fecal weights, stool consistency or general animal health: no significant changes
